Measured values reported in US20230286973A1, “PROTEIN SECRETION INHIBITORS” (KEZAR LIFE SCIENCES, priority 2020, published 2023).
Where “and” joins values, the source holds several entries; their conditions need not be identical. Equal values may be shown once. Read-outs that look alike come from different tables or passages of the source.

Assays:
[1] = Liver Microsome Stability Assay (monkey); details: monkey liver microsomes, with NADPH, 1.0 uM compound
Description: (§1) Stability of a compound was assessed in the presence of liver microsomes from various sources—mouse, rat, monkey and human liver microsomes. 1.0 uM compound, 0.4% DMSO in 0.1 M Potassium Phosphate with 1.0 mg/mL liver microsomes, were incubated at 37° C. with or without 1 mM NADPH. The samples were quenched at 0, and 30 minutes.

[2] = Liver Microsome Stability Assay (rat); details: rat liver microsomes, with NADPH, 1.0 uM compound
Description: as §1

[3] = system: TNFα-FL/Gaussia Luciferase; assay: Dox Induced TNFα-FL-Gluc Assay; assay type: cell-based; details: for IC50: 24 hr Dox induction, 293FRT/TO cells, read-out: 24 hr Dox Inducible TNFaFLGluc 293FRT/TO: Mean IC50; for 24 hr Dox Inducible TNFaFLGluc 293FRT/TO: TNF/PD1: ratio of TNFaFLGluc IC50 to PD1ssGluc IC50
How it was run: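 Cell line: stable Flp-In 293 T-REx, TNFα-FL(1-233)-Gaussia luciferase fusion, T-REx-inducible. Plated day -1; compounds in DMSO/media + doxycycline, 37 °C, 5% CO2. Undefined stereocentres = mixture tested.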

[4] = system: multiple myeloma cell line NCI-H929; assay: H929 Cell Viability Assay; assay type: cell-based, human; details: NCI-H929 cells, Celltiter-Glo
How it was run: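 Cells in RPMI 1640/10% FBS; compound dilutions in DMSO/media; 48 h, 37° C, 5% CO2; CellTiter-Glo luciferase readout for viability.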

[5] = system: IL-2-FL/Gaussia Luciferase; assay: Dox Induced IL2-FL-Gluc Assay; assay type: cell-based; details: for IC50: 24 hr Dox induction, 293FRT/TO cells, read-out: 24 hr Dox Inducible IL2FLGluc 293FRT/TO: Mean IC50; for 24 hr Dox Inducible IL2FLGluc 293FRT/TO: IL2/PD1: ratio of IL2FLGluc IC50 to PD1ssGluc IC50
How it was run: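 Stable Flp-In 293 T-REx line, Tet-regulated IL-2 (aa 1-153)–Gaussia luciferase fusion; hygromycin/blasticidin selected. Plated day -1; compound + doxycycline added next day; 37° C, 5% CO2.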

[6] = Liver Microsome Stability Assay (mouse); details: mouse liver microsomes, with NADPH, 1.0 uM compound
Description: as §1

[7] = system: HER3-ss+4aa/Gaussia Luciferase; assay: Dox-Induced Her3-ss-Gluc Assay; assay type: cell-based
How it was run: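 Flp-In 293 T-REx cells, stable HER3-ss+4aa/Gaussia luciferase insert, hygromycin/blasticidin selected; plated day before; compound in DMSO/media + doxycycline; 37° C., 5% CO2.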

[8] = Liver Microsome Stability Assay (human); details: human liver microsomes, with NADPH, 1.0 uM compound
Description: as §1

[9] = system: PD1-ss+10aa/Gaussia Luciferase; assay: Dox-Induced PD1-ss-Gluc Assay; assay type: cell-based
How it was run: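 Compounds were added in DMSO/media with doxycycline and incubated at 37 °C, 5% CO2, on 293 T-REx cells plated one day earlier. These cells stably express, under tetracycline-regulated control, a Gaussia luciferase fused to the PD1 signal peptide plus 10 residues. Structures drawn without stereochemistry were tested as stereoisomer mixtures.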

[10] = system: multiple myeloma cell line U266B1; assay: U266 Cell Viability Assay; assay type: cell-based, human; details: U266B1 cells, Celltiter-Glo
How it was run: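 Luminescent ATP read-out (CellTiter-Glo) after 48 h compound exposure at 37° C., 5% CO2; cells maintained in RPMI 1640/10% FBS/2 mM glutamine/pen-strep, compounds diluted in DMSO/media.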

[11] = 24 hr Dox induction; 293FRT/TO cells; read-out: 24 hr Dox Inducible Her3(ss + 4)Gluc 293FRT/TO: Mean IC50
[12] = 24 hr Dox induction; 293FRT/TO cells; read-out: 24 hr Dox Inducible PD1ssGluc 293FRT/TO: Mean IC50

SMILES | Liver Microsome Stability (Multiple Species): Monkey - % Remaining after 30 min w/NADPH [1] | Liver Microsome Stability (Multiple Species): Rat - % Remaining after 30 min w/NADPH [2] | IC50 [3] | 24 hr Dox Inducible TNFaFLGluc 293FRT/TO: TNF/PD1 [3] | EC50 ([4]; Homo sapiens, NCI-H929, 48 h) | EC50 ([4]; 48 hr) | IC50 [5] | 24 hr Dox Inducible IL2FLGluc 293FRT/TO: IL2/PD1 [5] | Liver Microsome Stability (Multiple Species): Mouse - % Remaining after 30 min w/NADPH [6] | IC50 [7, 11] | Liver Microsome Stability (Multiple Species): Human - % Remaining after 30 min w/NADPH [8] | IC50 [9, 12] | EC50 ([10]; Homo sapiens, U-266, 48 h) | EC50 ([10]; 48 hr) | EC50 ([4]; Homo sapiens, 48 hr) | IC50 ([7]; read-out: 24 hr Dox Inducible Her3(ss + 4)Gluc 293FRT/TO: Mean IC50; 24 hr Dox induction; 293FRT/TO cells) | IC50 ([9]; read-out: 24 hr Dox Inducible PD1ssGluc 293FRT/TO: Mean IC50; 24 hr Dox induction; 293FRT/TO cells) | EC50 ([10]; Homo sapiens, U-266, 48 hr)
O=C(Nc1nc([C@H]2CCCN2c2ccc(OC3CNC3)cc2)cs1)c1cccn1Cc1ccnc(F)c1 [Compound A85, (R)-N-(4-(1-(4-(azetidin-3-yloxy)phenyl)pyrrolidin-2-yl)thiazol-2-yl)-1-((2-fluoropyridin-4-yl)methyl)-1H-pyrrole-2-carboxamide] | 49% and 62.5% | 90.7% and 99.6% | 21600 nM and > 25000 nM | 75.9 and > 85.1 | 6260 nM | 5290 nM | 2110 nM and 1470 nM | 7.4 and 5 | 57.7% and 62.5% | 566 nM and 543 nM | 52.8% and 65.2% | 285 nM and 294 nM | 10300 nM | 7380 nM | – | – | – | –
O=C(Nc1nc([C@H]2CCCN2c2ccc(O[C@@H]3CCCNC3)cc2)cs1)c1cccn1Cc1ccnc(F)c1 [Compound A87, 1-((2-fluoropyridin-4-yl)methyl)-N-(4-((R)-1-(4-(((R)-piperidin-3-yl)oxy)phenyl)pyrrolidin-2-yl)thiazol-2-yl)-1H-pyrrole-2-carboxamide] | 32.6% | 61.8% | 21500 nM | 33.8 | 6310 nM | – | 2580 nM | 4.1 | 75.6% | 1150 nM | 51.1% | 636 nM | 8830 nM | – | – | – | – | –
O=C(Nc1nc([C@H]2CCCN2c2ccc(O[C@H]3CCCNC3)cc2)cs1)c1cccn1Cc1ccnc(F)c1 [Compound A88, 1-((2-fluoropyridin-4-yl)methyl)-N-(4-((R)-1-(4-(((S)-piperidin-3-yl)oxy)phenyl)pyrrolidin-2-yl)thiazol-2-yl)-1H-pyrrole-2-carboxamide] | 3.2% | 76% | 11000 nM | 11.5 | 7330 nM | – | 3330 nM | 3.5 | 71.7% | 1210 nM | 57.6% | 952 nM | 11500 nM | – | – | – | – | –
O=C(Nc1nc([C@H]2CCCN2c2ccc(OC3=CCNCC3)cc2)cs1)c1cccn1Cc1ccnc(F)c1 [Compound A89, (R)-1-((2-fluoropyridin-4-yl)methyl)-N-(4-(1-(4-((1,2,3,6-tetrahydropyridin-4-yl)oxy)phenyl)pyrrolidin-2-yl)thiazol-2-yl)-1H-pyrrole-2-carboxamide] | 2.45% | 56.9% | 18400 nM | 32.9 | 6370 nM | – | 2710 nM | 4.9 | 40.4% | 1110 nM | 47% | 558 nM | 8300 nM | – | – | – | – | –
O=C(Nc1nc([C@H]2CCCN2c2ccc(OC3CCN(C(=O)CF)CC3)cc2)cs1)c1cccn1Cc1ccnc(F)c1 [Compound A90, (R)-N-(4-(1-(4-((1-(2-fluoroacetyl)piperidin-4-yl)oxy)phenyl)pyrrolidin-2-yl)thiazol-2-yl)-1-((2-fluoropyridin-4-yl)methyl)-1H-pyrrole-2-carboxamide] | 1.3% | 39.1% | 512 nM | 12.4 | – | – | 82.9 nM | 2 | 21.7% | – | 22.3% | – | – | – | 1080 nM | 82.8 nM | 41.5 nM | > 25000 nM
O=C(Nc1nc([C@H]2CCCN2c2ccc(OC3CCN(C(=O)C(F)F)CC3)cc2)cs1)c1cccn1Cc1ccnc(F)c1 [Compound A91, (R)-N-(4-(1-(4-((1-(2,2-difluoroacetyl)piperidin-4-yl)oxy)phenyl)pyrrolidin-2-yl)thiazol-2-yl)-1-((2-fluoropyridin-4-yl)methyl)-1H-pyrrole-2-carboxamide] | 2.34% | 19.7% | 148 nM | 10 | 346 nM | – | 25 nM | 1.7 | 27.4% | 26.5 nM | 43% | 14.8 nM | > 25000 nM | – | – | – | – | –
O=C(Nc1nc([C@H]2CCCN2c2ccc(OC3CCN(C(=O)C(F)(F)F)CC3)cc2)cs1)c1cccn1Cc1ccnc(F)c1 [Compound A92, (R)-1-((2-fluoropyridin-4-yl)methyl)-N-(4-(1-(4-((1-(2,2,2-trifluoroacetyl)piperidin-4-yl)oxy)phenyl)pyrrolidin-2-yl)thiazol-2-yl)-1H-pyrrole-2-carboxamide] | 22.5% | 43.6% | 254 nM | 10.9 | 463 nM | – | 30.6 nM | 1.3 | 52.3% | 47.3 nM | 63.5% | 23.3 nM | > 25000 nM | – | – | – | – | –
